Data reported in paper PMC9933482 (ACS Omega, 2023).
In brackets after ≈: the same amount, converted by molar mass. Entries after “also recorded” stand apart in the source; their conditions may differ.

Assays:
[1] = biological target: recombinant human carbonic anhydrase XII (hCAXII) (Homo sapiens, UniProt O43570); test: hCAXII enzyme inhibition assay; type: biochemical
[2] = biological target: human carbonic anhydrase IX (hCAIX) (Homo sapiens, UniProt Q16790); test: biochemical
[3] = tested on: human lung fibroblast cell line WI38; test: MTT cell viability, normal lung fibroblast WI38; type: cell-based; settings: WI-38, read-out: IC50 in μg/mL WI38
HePG-2 cells [4] = test: Annexin V-FITC/PI apoptosis and necrosis assay by flow cytometry; type: cell-based, human; settings: for increase of early apoptotic ratio compared to control cells / increase of late apoptotic % compared to control cells / necrosis compared to the control cell HePG-2: HePG-2; for apoptosis total, cell content % / apoptosis early, cell content % / necrosis, cell content % / apoptosis late, cell content %: HePG-2, compound at IC50; for apoptosis early, cell content %: lower right quadrant; for necrosis, cell content %: upper left quadrant; for apoptosis late, cell content %: upper right quadrant
caspase-9 = test: Caspase 9 assay; type: cell-based, human; settings: for increase in level of active caspase-9 compared to control: HePG-2; for Casp9 OD: HepG2 cells treated with compound
HePG-2 cell line = test: MTT cytotoxicity assay, HePG-2; type: cell-based, human; settings: Homo sapiens, HepG2, 24 h, read-out: IC50 in μg/mL HePG-2, MTT, 24 h treatment
HePG-2 cells [5] = test: Cell cycle analysis by DNA flow cytometry; type: cell-based, human; settings: for %G0–G1 (DNA content) / %G2/M (DNA content) / %S (DNA content): HePG-2, compound at IC50, 24 h
MCF-7 cell line = test: MTT cytotoxicity assay, MCF-7; type: cell-based, human; settings: Homo sapiens, MCF7, 24 h, read-out: IC50 in μg/mL MCF-7, MTT, 24 h treatment

recombinant human carbonic anhydrase XII (hCAXII), sequence (O43570 25-291): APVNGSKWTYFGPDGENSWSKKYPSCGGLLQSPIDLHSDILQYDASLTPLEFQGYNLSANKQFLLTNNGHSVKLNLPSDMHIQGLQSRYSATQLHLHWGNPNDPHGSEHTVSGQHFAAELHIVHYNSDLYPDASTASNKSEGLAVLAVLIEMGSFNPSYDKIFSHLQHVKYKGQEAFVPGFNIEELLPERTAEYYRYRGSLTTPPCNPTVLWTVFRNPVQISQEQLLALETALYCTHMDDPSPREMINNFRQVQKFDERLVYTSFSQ

In the case of `N#CC1CSc2[nH]c(=O)sc2C1c1cn(-c2ccccc2)nc1-c1ccc(Br)cc1` (stereo not drawn) [compound 7e, 7-(3-(4-Bromophenyl)-1-phenyl-1H-pyrazol-4-yl)-2-oxo-3,5,6,7-tetrahydro-2H-thiopyrano-[2,3-d]thiazole-6-carbonitrile], the IC50 [1] is reported as 202 ± 11 nM, the IC50 [2] is reported as 67 ± 3 nM and the IC50 [3] is reported as 27.1 ± 3.3 µg/mL (≈ 54.6 µM). The “increase of early apoptotic ratio compared to control cells” value (HePG-2 cells [4]) was 21 fold, the “increase of late apoptotic % compared to control cells” value (HePG-2 cells [4]) was “approximately 101 fold” and the “necrosis compared to the control cell HePG-2” value (HePG-2 cells [4]) was roughly 3 fold. The “apoptosis total, cell content %” value (HePG-2 cells [4]) was 36.28%, the “apoptosis early, cell content %” value (HePG-2 cells [4]) was 11.91% and the “necrosis, cell content %” value (HePG-2 cells [4]) was 3.13%. The “apoptosis late, cell content %” value (HePG-2 cells [4]) was 21.24%, the “increase in level of active caspase-9 compared to control” value (caspase-9) was roughly 4 fold and the “Casp9 OD” value (caspase-9) was 0.813. The IC50 (HePG-2 cell line) was 9.11 ± 3.2 µg/mL (≈ 18.4 µM), the “cell cycle comment (phase of arrest)” value (HePG-2 cells [5]; HePG-2) was “arrested in phase S; also recorded: cell growth arrest@S” and the “increase of cell ratio in phase S compared to the control” value (HePG-2 cells [5]; HePG-2) was 1.2 fold. For the same molecule, the “%G0–G1 (DNA content)” value (HePG-2 cells [5]) was 41.39%, the “%G2/M (DNA content)” value (HePG-2 cells [5]) was 14.36% and the “%S (DNA content)” value (HePG-2 cells [5]) was 44.25%. It also gave an IC50 (MCF-7 cell line) of 10.1 ± 2.1 µg/mL (≈ 20.4 µM).

`CCOC(=O)C1CSc2[nH]c(=O)sc2C1c1cn(-c2ccccc2)nc1-c1ccc(Cl)cc1` (stereo not drawn) [compound 7i, Ethyl 7-(3-(4-Chlorophenyl)-1-phenyl-1H-pyrazol-4-yl)-2-oxo-3,5,6,7-tetra-hydro-2H-thiopyrano[2,3-d]thiazole-6-carboxylate] showed an IC50 [1] of 123 ± 7 nM, an IC50 [2] of 287 ± 14 nM and an IC50 [3] of 19.5 ± 1.6 µg/mL (≈ 39.1 µM). The “increase of early apoptotic ratio compared to control cells” value (HePG-2 cells [4]) was 52 fold, the “increase of late apoptotic % compared to control cells” value (HePG-2 cells [4]) was roughly 45 fold and the “necrosis compared to the control cell HePG-2” value (HePG-2 cells [4]) was roughly 3 fold. The “apoptosis total, cell content %” value (HePG-2 cells [4]) was 41.13%, the “apoptosis early, cell content %” value (HePG-2 cells [4]) was 28.71% and the “necrosis, cell content %” value (HePG-2 cells [4]) was 2.91%. The “apoptosis late, cell content %” value (HePG-2 cells [4]) was 9.51%, the “increase in level of active caspase-9 compared to control” value (caspase-9) was 3 fold and the “Casp9 OD” value (caspase-9) was 0.609. The “caspase-9 protein level vs untreated cells, Image J analysis” value (caspase-9; after normalization to β-actin) was 2.98 fold, the IC50 (HePG-2 cell line) was 7.83 ± 2.1 µg/mL (≈ 15.7 µM) and the “cell cycle comment (phase of arrest)” value (HePG-2 cells [5]; HePG-2) was “arrested in phase G2/M; also recorded: cell growth arrest@G2/M”. The “increase of cell ratio in phase G2/M compared to the control” value (HePG-2 cells [5]; HePG-2) was 1.6 fold, the “%G0–G1 (DNA content)” value (HePG-2 cells [5]) was 39.56% and the “%G2/M (DNA content)” value (HePG-2 cells [5]) was 27.93%. The “%S (DNA content)” value (HePG-2 cells [5]) was 32.51% and the IC50 (MCF-7 cell line) was 10.1 ± 1.5 µg/mL (≈ 20.2 µM).
